Where two headings read alike, the source gives them in different places.
System: zebrafish embryos
[1] = 5μM through 120 hpf, malformation rate

Compound	pericardial oedemata, Mean [1]	spinal curvature, Mean [1]	tail dysplasia, Mean [1]	Mortality (%) (5 µM, exposure through 120 hpf)	Mortality (%) (in vivo)	pericardial oedemata, Mean (in vivo)	spinal curvature, Mean (in vivo)	tail dysplasia, Mean (in vivo)
CC(F)(F)CC(F)(F)F [compound 29, 1,1,1,3,3-Pentafluorobutane]	0.00%	0.00%	0.00%	3.3%	–	–	–	–
CCN(CCO)S(=O)(=O)C(F)(F)C(F)(F)C(F)(F)C(F)(F)C(F)(F)C(F)(F)C(F)(F)C(F)(F)F [compound 9, N-Ethyl-N-(2-hydroxyethyl)perfluorooctanesulfonamide]	1.11%	0.00%	0.00%	1.1%	–	–	–	–
CC=CC(F)(F)C(F)(F)C(F)(F)F [compound 22, 1-Propenylperfluoropropane]	0.00%	0.00%	0.00%	3.3%	–	–	–	–
O=S(=O)(F)C(F)(F)C(F)(F)C(F)(F)C(F)(F)F [compound 8, Perfluorobutanesulfonyl fluoride]	0.00%	1.11%	3.33%	2.2%	–	–	–	–
O=C(F)C(F)(F)C(F)(F)C(F)(F)C(=O)F [compound 63, Perfluoroglutaryl difluoride]	0.00%	0.00%	0.00%	5.6%	–	–	–	–
CCOC(F)(F)C(F)(F)C(F)(F)C(F)(F)F [compound 65, Ethyl perfluorobutyl ether]	0.00%	0.00%	0.00%	0%	–	–	–	–
C=CC(F)(C(F)(F)F)C(F)(F)C(F)(F)F (stereo not shown) [compound 25, 2-Vinylperfluorobutane]	0.00%	0.00%	0.00%	1.1%	–	–	–	–
FC(F)(F)COCC(F)(F)F [compound 27, Flurothyl, reference compound]	2.22%	0.00%	0.00%	1.1%	–	–	–	–
C=CC(F)(F)C(F)(F)C(F)(F)C(F)(F)F [compound 59, 1H,1H,2H-Perfluoro-1-hexene]	0.00%	1.11%	0.00%	4.4%	–	–	–	–
FC(F)OCC(F)(F)C(F)(F)F [compound 52, Difluoromethyl 1H,1H-perfluoropropyl]	1.11%	0.00%	0.00%	2.2%	–	–	–	–
FCOC(C(F)(F)F)C(F)(F)F [compound 3, Sevoflurane, reference compound]	0.00%	2.22%	0.00%	1.1%	–	–	–	–
O=C(O)C(F)(OC(F)(F)C(F)(F)C(F)(F)F)C(F)(F)F (stereo not shown) [compound 37, Perfluoro-2-methyl-3-oxahexanoic acid]	2.22%	0.00%	1.11%	1.1%	–	–	–	–
CC(O)C(F)(F)C(F)(F)F (stereo not shown) [compound 62, 1-Pentafluoroethylethanol]	1.11%	0.00%	1.11%	6.7%	–	–	–	–
C=CCOC(F)(C(F)(F)F)C(F)(F)F [compound 18, Allyl perfluoroisopropyl ether]	0.00%	0.00%	0.00%	3.3%	–	–	–	–
O=C(OC(=O)C(F)(F)C(F)(F)F)C(F)(F)C(F)(F)F [compound 43, Pentafluoropropanoic anhydride]	4.44%	0.00%	4.44%	5.6%	–	–	–	–
NC(C(F)(F)F)C(F)(F)F [compound 71, 2-Amino-2H-perfluoropropane]	0.00%	0.00%	0.00%	3.3%	–	–	–	–

Compound	pericardial oedemata, Mean [1]	spinal curvature, Mean [1]	tail dysplasia, Mean [1]	Mortality (%) (5 µM, exposure through 120 hpf)	Mortality (%) (in vivo)	pericardial oedemata, Mean (in vivo)	spinal curvature, Mean (in vivo)	tail dysplasia, Mean (in vivo)
O=CC(F)(F)C(F)(F)C(F)(F)F [compound 42, Perfluorobutyraldehyde]	2.22%	2.22%	0.00%	0%	–	–	–	–
OCCC(F)(F)C(F)(F)C(F)(F)C(F)(F)F [compound 41, 4:2 Fluorotelomer alcohol]	3.33%	0.00%	0.00%	0%	–	–	–	–
O=C(F)C(F)(F)C(F)(F)C(F)(F)C(F)F [compound 51, 5H-Octafluoropentanoyl fluoride]	–	–	–	–	0	1.11%	0.00%	3.33%
OC(O)(C(F)C(O)(O)C(F)(F)F)C(F)(F)F [compound 66, 3H-Perfluoro-2,2,4,4-tetrahydroxypentane]	0.00%	0.00%	0.00%	1.1%	–	–	–	–
OCC(F)(F)C(F)(F)C(F)(F)F [compound 11, Heptafluorobutanol]	4.44%	2.22%	0.00%	1.1%	–	–	–	–
FC(F)=C(F)C(F)(F)C(F)(F)C(F)(F)C(F)F [compound 69, 6H-Perfluorohex-1-ene]	0.00%	0.00%	0.00%	0%	–	–	–	–
FC(F)=C(F)OC(F)(F)C(F)(F)C(F)(F)F [compound 53, Heptafluoropropyl trifluorovinyl ether]	0.00%	1.11%	0.00%	2.2%	–	–	–	–
FC(F)(F)COC(OCC(F)(F)F)OCC(F)(F)F [compound 1, tris(Trifluoroethoxy)methane]	2.22%	2.22%	2.22%	0%	–	–	–	–
NCC(F)(F)C(F)(F)C(F)(F)C(F)(F)F [compound 68, 1H,1H-Perfluoropentylamine]	0.00%	0.00%	0.00%	1.1%	–	–	–	–
CC(=O)C(F)(F)C(F)(F)F [compound 55, Methyl perfluoroethyl ketone]	1.11%	2.22%	0.00%	2.2%	–	–	–	–
COC(F)(F)C(F)(C(F)(F)F)C(F)(F)F [compound 44, Perfluoroisobutyl methyl ether]	–	–	–	–	1.1	1.11%	1.11%	0.00%
FC(F)(F)C(F)(F)CNCC(F)(F)C(F)(F)F [compound 45, Bis(1H,1H-perfluoropropyl)amine]	1.11%	0.00%	1.11%	2.2%	–	–	–	–
O=CC(F)(F)C(F)(F)C(F)(F)C(F)F [compound 72, 5H-Perfluoropentanal]	0.00%	0.00%	0.00%	3.3%	–	–	–	–
NC(O)(C(F)(F)F)C(F)(F)F [compound 33, 2-Aminohexafluoropropan-2-ol]	0.00%	0.00%	0.00%	7.8%	–	–	–	–
OCCC(F)(F)C(F)(F)C(F)(F)C(F)(F)C(F)(F)C(F)(F)C(F)(F)C(F)(F)F [compound 64, 8:2 Fluorotelomer alcohol]	0.00%	2.22%	0.00%	3.3%	–	–	–	–
